Measurements published in the Deep4Chem optical property database.
Where “and” joins values, the source holds several entries; their conditions need not be identical. Equal values may be shown once. Blank lines part the entries; values can stand above or below the molecule they belong to.

Assay: solvent given as SMILES

SMILES: CCC1=C(C)C2=C(c3c(C)cc(C)nc3-c3cccs3)c3c(C)c(CC)c(C)n3[B-](F)(F)[N+]2=C1C
absorption maximum (in C1CCCCC1): 532 nm
absorption maximum (in C1CCOC1): 532 nm
absorption maximum (in C1COCCO1): 533 nm
absorption maximum (in CC#N): 530 nm
absorption maximum (in CCCCCC): 531 nm
absorption maximum (in CCO): 531 nm
absorption maximum (in CCOC(C)=O): 531 nm
absorption maximum (in CCOCC): 530 nm
absorption maximum (in CN(C)C=O): 532 nm
absorption maximum (in CS(C)=O): 534 nm
absorption maximum (in Cc1ccccc1): 533 nm
absorption maximum (in ClC(Cl)(Cl)Cl): 534 nm
absorption maximum (in ClC(Cl)Cl): 535 nm

absorption maximum (in C1COCCO1): 342 nm
absorption maximum (in CC#N): 340 nm
absorption maximum (in CCCCO): 350 nm
absorption maximum (in CCCO): 350 nm
absorption maximum (in CCO): 349 nm
absorption maximum (in CCOC(C)=O): 343 nm
absorption maximum (in CO): 346 nm
SMILES: Cc1cnc(NC(=O)C2=C(O)c3ccccc3S(=O)(=O)N2C)s1

absorption maximum (in CC#N): 334 nm
SMILES: COC(=O)c1c(NC(C)(C)C)oc(-c2ccccc2)c1C(=O)OC

SMILES: N#CC(C#N)=Cc1cn(-c2ccccc2)nc1-c1ccc([N+](=O)[O-])cc1
absorption maximum (in C1CCOC1): 346 nm
absorption maximum (in C1COCCO1): 346 nm
absorption maximum (in CCO): 346 nm
absorption maximum (in CCOC(C)=O): 346 nm
absorption maximum (in CN(C)C=O): 347 nm
absorption maximum (in CO): 345 nm
absorption maximum (in CS(C)=O): 343 nm
absorption maximum (in Cc1ccccc1): 356 nm
absorption maximum (in ClC(Cl)Cl): 352 nm

absorption maximum (in CCCCCCC): 405 nm
SMILES: c1cc2c3c(cccc3c1)-c1c-2ccc2c1ccc1ccccc12

absorption maximum (in C1CCCCC1): 517 nm
SMILES: c1ccc(-c2cc3cccc[n+]3[b-]3ccc(-c4cc[b-]5c(c4)c(-c4ccccc4)cc4cccc[n+]54)cc32)cc1

absorption maximum (in C1COCCO1): 444 nm
absorption maximum (in CC#N): 444 nm
absorption maximum (in CCCCOCCCC): 444 nm
absorption maximum (in CCOC(C)=O): 443 nm
SMILES: c1ccc(Nc2nc(Nc3ccccc3)nc(Nc3ccc4c5cccc6cccc(c7cccc3c74)c65)n2)cc1

absorption maximum (in C1COCCO1): 428 nm
SMILES: COc1ccc(C2=C/C(=C\c3ccc(C#N)cc3)C(=O)O2)cc1OC

SMILES: COc1cc(N(c2ccccc2)c2ccc(C=C(C#N)C#N)c(OC)c2)ccc1C=C(C#N)C#N
absorption maximum (in C1COCCO1): 464 nm
absorption maximum (in CC#N): 477 nm
absorption maximum (in CC(C)=O): 470 nm
absorption maximum (in CCOC(C)=O): 468 nm
absorption maximum (in CN(C)C=O): 469 nm
absorption maximum (in CO): 471 nm
absorption maximum (in Cc1ccccc1): 471 nm
absorption maximum (in ClC(Cl)Cl): 480 nm
absorption maximum (in ClCCl): 479 nm

SMILES: CCN(CC)c1ccc(-c2ccc(-c3nc(N4CCOCC4)c4ccccc4n3)s2)cc1
absorption maximum (in CC#N): 401 nm
absorption maximum (in Cc1ccccc1): 405 nm

SMILES: COc1ccc(N(c2ccccc2)c2ccccc2)cc1
absorption maximum (in Cc1ccccc1): 299 nm

SMILES: CCCCCCCCCCCCCCCC[n+]1ccc(/C=C/c2ccc(N(C)C)cc2)cc1
absorption maximum (in C1COCCO1): 463 nm
absorption maximum (in CC(C)=O): 477 nm
absorption maximum (in CC(C)O): 481.2 nm
absorption maximum (in CCCCCC): 454.6 nm
absorption maximum (in CCCCO): 487.1 nm
absorption maximum (in CCCO): 485.6 nm
absorption maximum (in CCO): 484.9 nm
absorption maximum (in CN(C)C=O): 475.3 nm
absorption maximum (in CO): 480.2 nm
absorption maximum (in CS(C)=O): 479 nm
absorption maximum (in Cc1ccccc1): 474.8 nm
absorption maximum (in ClC(Cl)(Cl)Cl): 467.2 nm
absorption maximum (in ClC(Cl)Cl): 493 nm
absorption maximum (in ClCCl): 515.2 nm
absorption maximum (in c1ccccc1): 476 nm

SMILES: Fc1c(F)c(-n2c3ccccc3c3ccccc32)c(F)c(F)c1-c1nnc(-c2ccccc2)o1
absorption maximum (in Cc1ccccc1): 344 nm

absorption maximum (in CCCCCC): 498 nm
SMILES: Cc1cc(C)n2c1C=C1C(=O)N(C)C(c3ccc([N+](=O)[O-])cc3)=[N+]1[B-]2(F)F

absorption maximum (in C1CCCCC1): 374 nm
absorption maximum (in CC#N): 374 nm
absorption maximum (in CO): 374 nm
absorption maximum (in ClC(Cl)Cl): 389 nm
SMILES: CC1(C)CC(NCc2ccc3ccc4cccc5ccc2c3c45)CC(C)(C)N1

absorption maximum (in CCO): 612 nm
absorption maximum (in ClC(Cl)Cl): 623 nm
absorption maximum (in O): 612 nm
SMILES: CC[N+](CC)=c1ccc2c(-c3ccccc3C(=O)O)c3c(=O)oc4c5c6c(cc4c3oc-2c1)CCCN6CCC5

absorption maximum (in C1CCCCC1): 433 nm
absorption maximum (in CC#N): 444 nm
absorption maximum (in CCO): 449 nm
absorption maximum (in c1ccccc1): 445 nm
SMILES: CN(C)c1cccc2c1C(=O)c1ccccc1-2

SMILES: O=C(c1ccncc1)c1ccc(-n2c3ccccc3c3ccccc32)cc1
absorption maximum (in C1CCOC1): 353.15 nm
absorption maximum (in CCCCCC): 354.95 nm
absorption maximum (in Cc1ccccc1): 359 nm
absorption maximum (in ClCCl): 359.23 nm

absorption maximum (in ClC(Cl)Cl): 365 nm
SMILES: COc1ccc(-c2cc(-c3ccc(N(C)C)cc3)nc(-c3ccccc3)n2)cc1

absorption maximum (in C1CCOC1): 366 nm
absorption maximum (in CC#N): 364 nm
absorption maximum (in CCO): 366 nm
absorption maximum (in CCOC(C)=O): 366 nm
absorption maximum (in CN(C)C=O): 360 nm
absorption maximum (in ClCCl): 372 nm
absorption maximum (in c1ccccc1): 370 nm
SMILES: Cc1ccc([C@@H]2C[C@](O)(c3ccccn3)C[C@](O)(c3ccccn3)[C@H]2C(=O)c2ccc(N(c3ccccc3)c3ccccc3)cc2)cc1

absorption maximum (in C1COCCO1): 358 nm
SMILES: c1ccc(-c2nc(-c3ccc(-c4nc(-c5ccccc5)c(-c5ccccc5)o4)cc3)oc2-c2ccccc2)cc1

absorption maximum (in ClC(Cl)Cl): 327 nm
SMILES: CCCCn1c2ccc(-c3ccc4ccccc4c3)cc2c2ccc3c4cc(-c5ccc6ccccc6c5)ccc4n(CCCC)c3c21

absorption maximum (in CCO): 301 nm
SMILES: COc1cc(F)c(C(=O)c2cc(F)c(OC)cc2F)cc1F

SMILES: CN(C)c1ccc(C2=Cc3ccc4ccccc4[n+]3[B-](F)(F)O2)cc1
absorption maximum (in C1CCOC1): 472 nm
absorption maximum (in C1COCCO1): 472 nm
absorption maximum (in CC1CCCCC1): 473 nm
absorption maximum (in CC#N): 468 nm
absorption maximum (in CCOC(C)=O): 468 nm
absorption maximum (in CCOCC): 467 nm
absorption maximum (in CN(C)C=O): 474 nm
absorption maximum (in CO): 468 nm
absorption maximum (in COC(C)=O): 468 nm
absorption maximum (in ClC(Cl)Cl): 477 nm

absorption maximum (in C1CCCCC1): 366 nm
SMILES: CCCC1(CCC)c2cc(-c3ccc(C(C)(C)C)cc3)ccc2-c2ccc(-c3ccc4c(c3)C(CCC)(CCC)c3cc(-c5ccc6c(c5)C(CCC)(CCC)c5cc(-c7ccc8c(c7)C(CCC)(CCC)c7cc(-c9ccc(C(C)(C)C)cc9)ccc7-8)ccc5-6)ccc3-4)cc21

absorption maximum (in ClCCl): 336 nm
SMILES: COC(=O)c1ccc(C(=O)NC(C)(C)C)c2c1ccc1c3ccccc3c3ccccc3c12

absorption maximum (in CC1CCCCC1): 293 nm
absorption maximum (in CC#N): 285 nm
absorption maximum (in CCCCCCC): 293 nm
absorption maximum (in CCO): 286 nm
absorption maximum (in CN(C)C=O): 284 nm
absorption maximum (in ClC(Cl)Cl): 285 nm
absorption maximum (in O): 280 nm
SMILES: c1cc(N2CCCC2)ccn1

SMILES: Nc1ccccc1C(=O)O
absorption maximum (in C1CCCCC1): 338 nm
absorption maximum (in C1COCCO1): 338 nm
absorption maximum (in CC#N): 336 nm
absorption maximum (in CC(C)=O): 336 nm
absorption maximum (in CCO): 334 nm
absorption maximum (in CO): 334 nm
absorption maximum (in CS(C)=O): 342 nm
absorption maximum (in O): 290 nm and 310 nm
absorption maximum (in OCC(F)(F)F): 320 nm
absorption maximum (in c1ccccc1): 340 nm

absorption maximum (in O): 315 nm
SMILES: [NH3+]c1cc([NH3+])cc(-c2nc3ccccc3s2)c1

absorption maximum (in ClC(Cl)Cl): 487 nm
SMILES: N#Cc1nc(N(Cc2ccccc2I)Cc2ccccc2I)c(C#N)nc1N(Cc1ccccc1I)Cc1ccccc1I

absorption maximum (in CC#N): 340 nm
absorption maximum (in CCCCCC): 335 nm
absorption maximum (in CCO): 339 nm
absorption maximum (in CN(C)C=O): 343 nm
absorption maximum (in CO): 340 nm
absorption maximum (in ClC(Cl)Cl): 342 nm
SMILES: COc1ccc(-n2nc(C#N)c(N3CCCC3)n2)cc1

absorption maximum (in ClCCl): 721 nm
SMILES: Cc1ccc(/C2=C3N=C(C(c4ccccc4)=C/3c3ccccc3)/C(c3ccc(C)cc3)=c3\[nH]/c(c(-c4ccccc4)c3-c3ccccc3)=C(/c3ccc(C)cc3)C3=N/C(=C(/c4ccc(C)cc4)c4[nH]c2c(-c2ccccc2)c4-c2ccccc2)C(c2ccccc2)=C3c2ccccc2)cc1

SMILES: CC1=C(c2cccs2)C(C)=[N+]2C1=C(c1ccccc1)c1c(C)c(-c3cccs3)c(C)n1[B-]2(F)F
absorption maximum (in CO): 521 nm
absorption maximum (in Cc1ccccc1): 530 nm
absorption maximum (in ClCCl): 527 nm

SMILES: CCCCCCc1ccc2c3c(ccc2c1)O[B-](F)(F)[N+](c1cc([N+]2=Cc4c(ccc5cc(CCCCCC)ccc45)O[B-]2(F)F)cc([N+]2=Cc4c(ccc5cc(CCCCCC)ccc45)O[B-]2(F)F)c1)=C3
absorption maximum (in C1CCOC1): 418 nm
absorption maximum (in CC#N): 419 nm
absorption maximum (in Cc1ccccc1): 433 nm
absorption maximum (in ClCCl): 428 nm

absorption maximum (in C1CCOC1): 316 nm
SMILES: CCCCn1c2ccccc2c2c1c1c3ccccc3n(CCCC)c1c1c3ccccc3n(CCCC)c21

absorption maximum (in CC#N): 295 nm
SMILES: Clc1ccc(-c2nc3ccccc3n2-c2ccccc2)cc1

SMILES: CCOC(=O)/C=C/c1ccc(N(C)C)cc1
absorption maximum (in C1CCCCC1): 353 nm
absorption maximum (in C1CCOC1): 362 nm
absorption maximum (in C1COCCO1): 359 nm
absorption maximum (in CC#N): 363 nm
absorption maximum (in CCCCCCCCO): 363 nm
absorption maximum (in CCCCCCO): 365 nm
absorption maximum (in CCCCO): 363 nm
absorption maximum (in CCCO): 364 nm
absorption maximum (in CCO): 363 nm
absorption maximum (in CCOC(C)=O): 360 nm
absorption maximum (in CO): 362 nm
absorption maximum (in Cc1ccccc1): 362 nm
absorption maximum (in O): 373 nm
absorption maximum (in c1ccccc1): 363 nm

SMILES: c1ccc([B-]2(c3ccccc3)Oc3ccc4ccccc4c3-c3c4ccccc4cc[n+]32)cc1
absorption maximum (in Cc1ccccc1): 427 nm

absorption maximum (in C1CCOC1): 410 nm
SMILES: CCCCCCCCCCOC(=O)c1ccc2c3ccc(C(=O)OCCCCCCCCCC)c4c(C(=O)OCCCCCCCCCC)cc5[nH]c6cc(C(=O)OCCCCCCCCCC)c1c2c6c5c43

absorption maximum (in ClC(Cl)Cl): 346 nm
SMILES: N#Cc1c(C#N)c2ccccc2c2ccccc12

SMILES: CCCC1=Cc2nc1ccc1[nH]c(cc1CCO)c1nc(ccc3[nH]c2cc3CCC)C(CCC)=C1
absorption maximum (in Cc1ccccc1): 637 nm

absorption maximum (in ClCCl): 429 nm
SMILES: CN(C)c1ccc(/C=C/c2cc(/C=C/c3ccc(N(C)C)cc3)nc(/C=C/c3ccc(C(F)(F)F)cc3)n2)cc1

absorption maximum (in ClCCl): 499 nm
SMILES: CCCCNc1ccc2n1[B-](F)(F)[N+]1=CC(/C=C/C(=O)OC(C)(C)C)=CC1=C2c1c(C)cc(C)cc1C

SMILES: CCC1=C(C)C2=C(C)c3cc(I)cn3[B-](F)(F)[N+]2=C1C
absorption maximum (in C1CCCCC1): 517.5 nm
absorption maximum (in CC(C)=O): 502.5 nm
absorption maximum (in CCO): 506 nm
absorption maximum (in CCOC(C)=O): 504.5 nm
absorption maximum (in CO): 503.5 nm
absorption maximum (in OCC(F)(F)F): 499.5 nm
